Patent publication US20230085307A1, “PYRIDAZINONE COMPOUND AND HERBICIDE” (NISSAN CHEMICAL CORPORATION, priority 2019, published 2023)

Experiments:
late watergrass = experiment: Test Example 1: herbicidal activity, application before weed generation under submerged conditions (Table 16, symbol A); assay type: in vivo, late watergrass (Echinochloa oryzicola); details: for Herbicidal effect on A: late watergrass (grade 0-5): 320 g/ha applied herbicide
Summary of the method: (§1)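 Submerged Wagner pots (alluvial soil, 4 cm water) sown with weed seeds and planted with 2.5-leaf rice seedlings; emulsifiable concentrate diluted in water applied to water surface on sowing day. Held in greenhouse at 25-30 °C; injury scored 0-5 by herbicidal rate after three weeks.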

Japanese bulrush = experiment: Test Example 1: herbicidal activity, application before weed generation under submerged conditions (Table 16, symbol B); assay type: in vivo, Japanese bulrush (Schoenoplectus juncoides); details: for Herbicidal effect on B: Japanese bulrush (grade 0-5): 320 g/ha applied herbicide
Summary of the method: as §1

oval-leafed pondweed = experiment: Test Example 1: herbicidal activity, application before weed generation under submerged conditions (Table 16, symbol C); assay type: in vivo, oval-leafed pondweed (Monochoria vaginalis); details: for Herbicidal effect on C: oval-leafed pondweed (grade 0-5): 320 g/ha applied herbicide
Summary of the method: as §1

barnyard grass [1] = experiment: Test Example 3: herbicidal effect by foliage application, Wagner pot (Table 18, symbol H); assay type: in vivo, barnyard grass (Echinochloa crus-galli); details: for herbicidal effect on H: barnyard grass: amount of applied herbicide 320 g/ha
Summary of the method: (§2)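 Plants were sown in alluvial soil held under 0.1–0.5 cm standing water and grown 14 days in a greenhouse at 25–30 °C. An emulsifiable formulation, water-diluted to the set dose, was then sprayed onto the foliage, and effects were scored three weeks later using previously defined criteria.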

Chinese sprangletop = experiment: Test Example 3: herbicidal effect by foliage application, Wagner pot (Table 18, symbol D); assay type: in vivo, chinese sprangletop (Leptochloa chinensis); details: for herbicidal effect on D: Chinese sprangletop: amount of applied herbicide 320 g/ha
Summary of the method: as §2

rice flat sedge = experiment: Test Example 3: herbicidal effect by foliage application, Wagner pot (Table 18, symbol E); assay type: in vivo, rice flat sedge (Cyperus iria); details: for herbicidal effect on E: rice flat sedge: amount of applied herbicide 320 g/ha
Summary of the method: as §2

southern crabgrass = experiment: Test Example 5: herbicidal effect by foliage application, plastic box (Table 20, symbol F); assay type: in vivo, southern crabgrass (Digitaria ciliaris); details: foliage application; for F: southern crabgrass, herbicidal effect (criteria 0-5): evaluated three weeks after application
Summary of the method: (§3)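 Sow seeds spot-wise in sterilized diluvial soil; cover with ~1.5 cm soil. Grow 14 days in greenhouse, 25° C. to 30° C. Spray foliage with emulsion diluted to predetermined amount. Rate effect after 3 weeks.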

green foxtail = experiment: Test Example 5: herbicidal effect by foliage application, plastic box (Table 20, symbol G); assay type: in vivo, green foxtail (Setaria viridis); details: foliage application; for G: green foxtail, herbicidal effect (criteria 0-5): evaluated three weeks after application
Summary of the method: as §3

barnyard grass [2] = experiment: Test Example 5: herbicidal effect by foliage application, plastic box (Table 20, symbol H); assay type: in vivo, barnyard grass (Echinochloa crus-galli); details: foliage application; for H: barnyard grass, herbicidal effect (criteria 0-5): evaluated three weeks after application
Summary of the method: as §3

wild oat = experiment: Test Example 5: herbicidal effect by foliage application, plastic box (Table 20, symbol I); assay type: in vivo, wild oat (Avena fatua); details: foliage application; for I: wild oat, herbicidal effect (criteria 0-5): evaluated three weeks after application
Summary of the method: as §3

blackgrass = experiment: Test Example 5: herbicidal effect by foliage application, plastic box (Table 20, symbol J); assay type: in vivo, blackgrass (Alopecurus myosuroides); details: foliage application; for J: blackgrass, herbicidal effect (criteria 0-5): evaluated three weeks after application
Summary of the method: as §3

Italian ryegrass = experiment: Test Example 5: herbicidal effect by foliage application, plastic box (Table 20, symbol K); assay type: in vivo, Italian ryegrass (Lolium multiflorum); details: foliage application; for K: Italian ryegrass, herbicidal effect (criteria 0-5): evaluated three weeks after application
Summary of the method: as §3

windgrass = experiment: Test Example 5: herbicidal effect by foliage application, plastic box (Table 20, symbol L); assay type: in vivo, windgrass (Apera spica-venti); details: foliage application; for L: windgrass, herbicidal effect (criteria 0-5): evaluated three weeks after application
Summary of the method: as §3

velvetleaf = experiment: Test Example 5: herbicidal effect by foliage application, plastic box (Table 20, symbol M); assay type: in vivo, velvetleaf (Abutilon theophrasti); details: foliage application; for M: velvetleaf, herbicidal effect (criteria 0-5): evaluated three weeks after application
Summary of the method: as §3

redroot pigweed = experiment: Test Example 5: herbicidal effect by foliage application, plastic box (Table 20, symbol N); assay type: in vivo, redroot pigweed (Amaranthus retroflexus); details: foliage application; for N: redroot pigweed, herbicidal effect (criteria 0-5): evaluated three weeks after application
Summary of the method: as §3

lambsquarters = experiment: Test Example 5: herbicidal effect by foliage application, plastic box (Table 20, symbol O); assay type: in vivo, lambsquarters (Chenopodium album); details: foliage application; for O: lambsquarters, herbicidal effect (criteria 0-5): evaluated three weeks after application
Summary of the method: as §3

chickweed = experiment: Test Example 5: herbicidal effect by foliage application, plastic box (Table 20, symbol P); assay type: in vivo, common chickweed (Stellaria media); details: foliage application; for P: chickweed, herbicidal effect (criteria 0-5): evaluated three weeks after application
Summary of the method: as §3

persian speedwell = experiment: Test Example 5: herbicidal effect by foliage application, plastic box (Table 20, symbol R); assay type: in vivo, Persian speedwell (Veronica persica); details: foliage application; for R: persian speedwell, herbicidal effect (criteria 0-5): evaluated three weeks after application
Summary of the method: as §3

[3] = AAH 320 g/ha, three weeks after application
[4] = amount of applied herbicide 320 g/ha
[5] = 320 g/ha, three weeks after application

## COc1cccc(OC)c1-c1sc2ccccc2c1-c1c(O)c(C)nn(C)c1=O [1-158]
Late watergrass
  Herbicidal effect on A: late watergrass (grade 0-5): 0 (Herbicidal rate of 5% or less (almost no effect))
Japanese bulrush
  Herbicidal effect on B: Japanese bulrush (grade 0-5): 2 (Herbicidal rate of 20% or more and less than 40%)
oval-leafed pondweed
  Herbicidal effect on C: oval-leafed pondweed (grade 0-5): 0 (Herbicidal rate of 5% or less (almost no effect))
Barnyard grass [1]; 320 g/ha
  herbicidal effect on H (barnyard grass), rating 0-5: 2 (Herbicidal rate of 20% or more and less than 40%)
Chinese sprangletop; 320 g/ha
  herbicidal effect on D (Chinese sprangletop), rating 0-5: 0 (Herbicidal rate of 5% or less (almost no effect))
Rice flat sedge; 320 g/ha
  herbicidal effect on E (rice flat sedge), rating 0-5: 0 (Herbicidal rate of 5% or less (almost no effect))
Southern crabgrass; [3]
  F: southern crabgrass, herbicidal effect: 0 (Herbicidal rate of 5% or less (almost no effect))
Green foxtail; [3]
  G: green foxtail, herbicidal effect: 0 (Herbicidal rate of 5% or less (almost no effect))
Barnyard grass [2]; [3]
  H: barnyard grass, herbicidal effect: 0 (Herbicidal rate of 5% or less (almost no effect))
Wild oat; [3]
  I: wild oat, herbicidal effect: 0 (Herbicidal rate of 5% or less (almost no effect))
blackgrass; [3]
  J: blackgrass, herbicidal effect: 0 (Herbicidal rate of 5% or less (almost no effect))
Italian ryegrass; [3]
  K: Italian ryegrass, herbicidal effect: 0 (Herbicidal rate of 5% or less (almost no effect))
windgrass; [3]
  L: windgrass, herbicidal effect: 0 (Herbicidal rate of 5% or less (almost no effect))
velvetleaf; [3]
  M: velvetleaf, herbicidal effect: 0 (Herbicidal rate of 5% or less (almost no effect))
Redroot pigweed; [3]
  N: redroot pigweed, herbicidal effect: 0 (Herbicidal rate of 5% or less (almost no effect))
lambsquarters; [3]
  O: lambsquarters, herbicidal effect: 0 (Herbicidal rate of 5% or less (almost no effect))
chickweed; [3]
  P: chickweed, herbicidal effect: 5 (Herbicidal rate of 90% or more (almost completely withered))
Persian speedwell; [3]
  R: persian speedwell, herbicidal effect: 5 (Herbicidal rate of 90% or more (almost completely withered))

## Cc1nn(C)c(=O)c(-c2c(-c3cccc(OC(C)C#N)c3)sc3ccc(F)cc23)c1O (stereo not drawn) [2-277]
Late watergrass
  Herbicidal effect on A: late watergrass (grade 0-5): 1 (Herbicidal rate of 5% or more and less than 20%)
Japanese bulrush
  Herbicidal effect on B: Japanese bulrush (grade 0-5): 0 (Herbicidal rate of 5% or less (almost no effect))
oval-leafed pondweed
  Herbicidal effect on C: oval-leafed pondweed (grade 0-5): 2 (Herbicidal rate of 20% or more and less than 40%)
Southern crabgrass; AAH 320 g/ha
  F: southern crabgrass, herbicidal effect (criteria 0-5): 0 (Herbicidal rate of 5% or less (almost no effect))
Green foxtail; AAH 320 g/ha
  G: green foxtail, herbicidal effect (criteria 0-5): 0 (Herbicidal rate of 5% or less (almost no effect))
Barnyard grass [2]; AAH 320 g/ha
  H: barnyard grass, herbicidal effect (criteria 0-5): 0 (Herbicidal rate of 5% or less (almost no effect))
Wild oat; AAH 320 g/ha
  I: wild oat, herbicidal effect (criteria 0-5): 0 (Herbicidal rate of 5% or less (almost no effect))
blackgrass; AAH 320 g/ha
  J: blackgrass, herbicidal effect (criteria 0-5): 0 (Herbicidal rate of 5% or less (almost no effect))
Italian ryegrass; AAH 320 g/ha
  K: Italian ryegrass, herbicidal effect (criteria 0-5): 0 (Herbicidal rate of 5% or less (almost no effect))
windgrass; AAH 320 g/ha
  L: windgrass, herbicidal effect (criteria 0-5): 0 (Herbicidal rate of 5% or less (almost no effect))
velvetleaf; AAH 320 g/ha
  M: velvetleaf, herbicidal effect (criteria 0-5): 0 (Herbicidal rate of 5% or less (almost no effect))
Redroot pigweed; AAH 320 g/ha
  N: redroot pigweed, herbicidal effect (criteria 0-5): 2 (Herbicidal rate of 20% or more and less than 40%)
lambsquarters; AAH 320 g/ha
  O: lambsquarters, herbicidal effect (criteria 0-5): 0 (Herbicidal rate of 5% or less (almost no effect))
chickweed; AAH 320 g/ha
  P: chickweed, herbicidal effect (criteria 0-5): 5 (Herbicidal rate of 90% or more (almost completely withered))
Persian speedwell; AAH 320 g/ha
  R: persian speedwell, herbicidal effect (criteria 0-5): 2 (Herbicidal rate of 20% or more and less than 40%)

## Cc1nn(C)c(=O)c(-c2c(-c3ccc(OC(F)F)cc3)sc3ccc(F)cc23)c1OCC(F)(F)F [2-302]
Late watergrass
  Herbicidal effect on A: late watergrass (grade 0-5): 3 (Herbicidal rate of 40% or more and less than 70%)
Japanese bulrush
  Herbicidal effect on B: Japanese bulrush (grade 0-5): 0 (Herbicidal rate of 5% or less (almost no effect))
oval-leafed pondweed
  Herbicidal effect on C: oval-leafed pondweed (grade 0-5): 0 (Herbicidal rate of 5% or less (almost no effect))
Barnyard grass [1]
  herbicidal effect on H: barnyard grass: 3 (Herbicidal rate of 40% or more and less than 70%)
Chinese sprangletop
  herbicidal effect on D: Chinese sprangletop: 0 (Herbicidal rate of 5% or less (almost no effect))
Rice flat sedge
  herbicidal effect on E: rice flat sedge: 3 (Herbicidal rate of 40% or more and less than 70%)
Southern crabgrass; AAH 320 g/ha
  F: southern crabgrass, herbicidal effect (criteria 0-5): 0 (Herbicidal rate of 5% or less (almost no effect))
Green foxtail; AAH 320 g/ha
  G: green foxtail, herbicidal effect (criteria 0-5): 0 (Herbicidal rate of 5% or less (almost no effect))
Barnyard grass [2]; AAH 320 g/ha
  H: barnyard grass, herbicidal effect (criteria 0-5): 0 (Herbicidal rate of 5% or less (almost no effect))
Wild oat; AAH 320 g/ha
  I: wild oat, herbicidal effect (criteria 0-5): 0 (Herbicidal rate of 5% or less (almost no effect))
blackgrass; AAH 320 g/ha
  J: blackgrass, herbicidal effect (criteria 0-5): 0 (Herbicidal rate of 5% or less (almost no effect))
Italian ryegrass; AAH 320 g/ha
  K: Italian ryegrass, herbicidal effect (criteria 0-5): 0 (Herbicidal rate of 5% or less (almost no effect))
windgrass; AAH 320 g/ha
  L: windgrass, herbicidal effect (criteria 0-5): 0 (Herbicidal rate of 5% or less (almost no effect))
velvetleaf; AAH 320 g/ha
  M: velvetleaf, herbicidal effect (criteria 0-5): 0 (Herbicidal rate of 5% or less (almost no effect))
Redroot pigweed; AAH 320 g/ha
  N: redroot pigweed, herbicidal effect (criteria 0-5): 3 (Herbicidal rate of 40% or more and less than 70%)
lambsquarters; AAH 320 g/ha
  O: lambsquarters, herbicidal effect (criteria 0-5): 1 (Herbicidal rate of 5% or more and less than 20%)
chickweed; AAH 320 g/ha
  P: chickweed, herbicidal effect (criteria 0-5): 4 (Herbicidal rate of 70% or more and less than 90%)
Persian speedwell; AAH 320 g/ha
  R: persian speedwell, herbicidal effect (criteria 0-5): 1 (Herbicidal rate of 5% or more and less than 20%)

## CSCCOc1ccc(-c2sc3ccc(F)cc3c2-c2c(OCCSC)c(C)nn(C)c2=O)cc1 [2-420]
Late watergrass; [4]
  Herbicidal effect, A: late watergrass: 2 (Herbicidal rate of 20% or more and less than 40%)
Japanese bulrush; [4]
  Herbicidal effect, B: Japanese bulrush: 3 (Herbicidal rate of 40% or more and less than 70%)
oval-leafed pondweed; [4]
  Herbicidal effect, C: oval-leafed pondweed: 0 (Herbicidal rate of 5% or less (almost no effect))
Barnyard grass [1]
  herbicidal effect on H: barnyard grass: 5 (Herbicidal rate of 90% or more (almost completely withered))
Chinese sprangletop
  herbicidal effect on D: Chinese sprangletop: 3 (Herbicidal rate of 40% or more and less than 70%)
Rice flat sedge
  herbicidal effect on E: rice flat sedge: 4 (Herbicidal rate of 70% or more and less than 90%)
Southern crabgrass; [5]
  F: southern crabgrass, herbicidal effect grade: 4 (Herbicidal rate of 70% or more and less than 90%)
Green foxtail; [5]
  G: green foxtail, herbicidal effect grade: 4 (Herbicidal rate of 70% or more and less than 90%)
Barnyard grass [2]; [5]
  H: barnyard grass, herbicidal effect grade: 5 (Herbicidal rate of 90% or more (almost completely withered))
Wild oat; [5]
  I: wild oat, herbicidal effect grade: 0 (Herbicidal rate of 5% or less (almost no effect))
blackgrass; [5]
  J: blackgrass, herbicidal effect grade: 4 (Herbicidal rate of 70% or more and less than 90%)
Italian ryegrass; [5]
  K: Italian ryegrass, herbicidal effect grade: 1 (Herbicidal rate of 5% or more and less than 20%)
windgrass; [5]
  L: windgrass, herbicidal effect grade: 4 (Herbicidal rate of 70% or more and less than 90%)
velvetleaf; [5]
  M: velvetleaf, herbicidal effect grade: 4 (Herbicidal rate of 70% or more and less than 90%)
Redroot pigweed; [5]
  N: redroot pigweed, herbicidal effect grade: 5 (Herbicidal rate of 90% or more (almost completely withered))
lambsquarters; [5]
  O: lambsquarters, herbicidal effect grade: 5 (Herbicidal rate of 90% or more (almost completely withered))
chickweed; [5]
  P: chickweed, herbicidal effect grade: 4 (Herbicidal rate of 70% or more and less than 90%)
Persian speedwell; [5]
  R: persian speedwell, herbicidal effect grade: 4 (Herbicidal rate of 70% or more and less than 90%)
